Laboratory results reported in patent publication US9790229B2, “Bruton's tyrosine kinase inhibitors” (priority 2009, dated 2017).

Each compound was assayed against BTK (Homo sapiens (Human), UniProt Q06187) (assay: In vitro BTK kinase assay: BTK-POLYGAT-LS ASSAY). Conditions: not given.
BTK, sequence (Q06187 whole entry): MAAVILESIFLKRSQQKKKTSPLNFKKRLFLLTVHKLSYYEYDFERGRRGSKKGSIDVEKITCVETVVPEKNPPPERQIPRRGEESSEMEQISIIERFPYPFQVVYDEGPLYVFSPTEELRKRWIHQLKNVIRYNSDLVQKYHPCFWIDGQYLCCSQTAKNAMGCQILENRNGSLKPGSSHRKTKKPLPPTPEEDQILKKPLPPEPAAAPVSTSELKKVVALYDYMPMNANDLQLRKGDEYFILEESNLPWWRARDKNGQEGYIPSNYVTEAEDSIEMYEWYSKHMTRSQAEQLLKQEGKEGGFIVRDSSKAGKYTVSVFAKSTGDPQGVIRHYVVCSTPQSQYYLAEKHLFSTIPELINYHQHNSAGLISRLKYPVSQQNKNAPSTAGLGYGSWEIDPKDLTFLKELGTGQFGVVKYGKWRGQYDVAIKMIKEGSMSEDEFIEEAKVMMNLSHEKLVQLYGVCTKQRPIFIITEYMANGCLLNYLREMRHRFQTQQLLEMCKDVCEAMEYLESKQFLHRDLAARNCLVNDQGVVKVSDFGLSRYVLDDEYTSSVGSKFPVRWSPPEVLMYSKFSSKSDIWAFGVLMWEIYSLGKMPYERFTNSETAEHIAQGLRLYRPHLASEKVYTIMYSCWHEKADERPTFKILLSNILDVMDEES

Structure (SMILES) | IC50 [nM]
O=C(Nc1ccccc1)Nc1cccc(C2CCCN(c3ncnc4[nH]nc(Br)c34)C2)c1 (stereo not drawn) [Cmpd 100, 1-(3-(1-(3-Bromo-1H-pyrazolo[3,4-d]pyrimidin-4-yl)piperidin-3-yl)phenyl)-3-phenylurea] | 1000 to 10000
Nc1ncnc(N2C[C@@H](O)C[C@@H](N3CCCC(Nc4cc(F)cc(Cl)c4)C3=O)C2)c1F (stereo partly drawn) [compound 284, (3′R, 5′S)-1′-(6-Amino-5-fluoropyrimidin-4-yl)-3-(3-chloro-5-fluorophenylamino)-5′-hydroxy-1,3′-bipiperidin-2-one] | 100 to 999
C[C@@H](NC(=O)Nc1cccc(C2CCCN(c3ncnc4[nH]ccc34)C2)c1)C1CCCCC1 (stereo partly drawn) [Cmpd 44, 1-(3-(1-(7H-pyrrolo[2,3-d]pyrimidin-4-yl)piperidin-3-yl)phenyl)-3-((R)-1-cyclohexylethyl)urea] | 1000 to 10000
O=C(Nc1cccc(F)c1)Nc1cccc(C2CCCN(c3ncnc4[nH]ccc34)C2)c1 (stereo not drawn) [compound 183] | 1000 to 10000
N#Cc1c(N)ncnc1N1CCCC(c2cccc(NC(=O)Nc3ccccc3)c2)C1 (stereo not drawn) [Cmpd 102, 1-(3-(1-(6-Amino-5-cyanopyrimidin-4-yl)piperidin-3-yl)phenyl)-3-phenylurea] | 100 to 999
O=C(Nc1cccc(C2CCCN(c3ncnc4[nH]ccc34)C2)c1)Nc1ccccc1N1CCCC1=O (stereo not drawn) [compound 170] | 100 to 999
N#Cc1c(N)ncnc1N1CCCC(c2ccc(OC(F)(F)F)c(NC(=O)c3ccccc3Cl)c2)C1 (stereo not drawn) [compound 145] | 100 to 999
O=C(Nc1cccc(C2CCCN(c3ncnc4[nH]ccc34)C2)c1)Nc1ccccc1N1CCC(F)(F)C1 (stereo not drawn) [compound 168] | 100 to 999
O=C(Nc1cccc(C2CN(c3ncnc4[nH]ccc34)CCC2CO)c1)Nc1ccccc1N1CCCC1 (stereo not drawn) [compound 163] | 100 to 999
O=C(Nc1cccc([C@H]2CN(c3ncnc4[nH]ccc34)CC[C@H]2CO)c1)Nc1ccccc1N1CCCC1 [compound 123, 1-(3-((3S/R)-4-(hydroxymethyl)-1-(7H-pyrrolo[2,3-d]pyrimidin-4-yl)piperidin-3-yl)phenyl)-3-(2-(pyrrolidin-1-yl)phenyl)urea] | 100 to 999
O=C(Nc1ccccc1)Nc1csc(C2CCCN(c3ncnc4[nH]ccc34)C2)n1 (stereo not drawn) [compound 106, 1-(2-(1-(7H-pyrrolo[2,3-d]pyrimidin-4-yl)piperidin-3-yl)thiazol-4-yl)-3-phenylurea] | 1000 to 10000
O=C(Nc1cccc(C2CCCN(c3ncnc4[nH]ccc34)C2)c1)Nc1cc(F)ccc1N1CCCC1 (stereo not drawn) [compound 160] | 100 to 999
Nc1ncnc(N2CCCC(c3cccc(NC(=O)Nc4ccccc4)c3)C2)c1Br (stereo not drawn) [Cmpd 101, 1-(3-(1-(6-Amino-5-bromopyrimidin-4-yl)piperidin-3-yl)phenyl)-3-phenylurea] | 1000 to 10000
O=C(Nc1cccc(C2CCCN(c3ncnc4[nH]ccc34)C2)c1)N[C@@H](CO)C1CCCCC1 (stereo partly drawn) [compound 213] | 1000 to 10000

Same assay, conditions: read-out: IC50 (10 uM ATP); 10 uM ATP; in vitro Btk kinase assay, Example 41

Structure (SMILES) | IC50 [nM]
Nc1ncnc(N2CC[C@@H](C(F)(F)F)[C@H](N3CCC[C@@H](Nc4cc(Cl)cc(Cl)c4)C3=O)C2)c1F [compound 335, trans (3R)-1′-(6-Amino-5-fluoropyrimidin-4-yl)-3-(3,5-dichlorophenylamino)-4′-(trifluoromethyl)-1,3′-bipiperidin-2-one] | < 100
CC(C)(C)NC(=O)Nc1cccc(C2CCCN(c3ncnc4[nH]ccc34)C2)c1 (stereo not drawn) [compound 250] | > 10000
CC(C)c1cccc(C(C)C)c1NC(=O)Nc1cccc(C2CCCN(c3ncnc4[nH]ccc34)C2)c1 (stereo not drawn) [compound 154] | < 100
FC(F)(F)c1cccnc1Nc1cccc(C2CCCN(c3ncnc4[nH]ccc34)C2)c1 (stereo not drawn) [compound 143, N-(3-(1-(7H-pyrrolo[2,3-d]pyrimidin-4-yl)piperidin-3-yl)phenyl)-3-(trifluoromethyl)pyridin-2-amine] | > 10000
Nc1ncnc(N2CC[C@H](C(F)(F)F)[C@@H](N3CC[C@@H](Nc4cc(Cl)cc(Cl)c4)C3=O)C2)c1F [compound 353] | < 100
COc1ccc(C2CCCN(c3ncnc4[nH]ccc34)C2)cc1NC(=O)Nc1ccccc1 (stereo not drawn) [compound 266] | > 10000
Nc1ncnc(N2CCOCC(N3CCCC(Nc4cc(Cl)cc(Cl)c4)C3=O)C2)c1F (stereo not drawn) [compound 344] | < 100
O=C(Nc1cccc(C2CCCN(c3ncnc4[nH]ccc34)C2)c1)c1cccnc1 (stereo not drawn) [compound 12, N-(3-(1-(7H-pyrrolo[2,3-d]pyrimidin-4-yl)piperidin-3-yl)phenyl)nicotinamide] | > 10000
CN1CCC(CNC(=O)Nc2cccc(C3CCCN(c4ncnc5[nH]ccc45)C3)c2)CC1 (stereo not drawn) [compound 245] | > 10000
CC(=O)N1CCCC(CNC(=O)Nc2cccc(C3CCCN(c4ncnc5[nH]ccc45)C3)c2)C1 (stereo not drawn) [compound 240] | > 10000
Nc1ncnc(N2CCC[C@@H](N3CCCC(Nc4ccc(C(=O)O)cc4)C3=O)C2)c1F (stereo partly drawn) [compound 298, 4-((3′R)-1′-(6-Amino-5-fluoropyrimidin-4-yl)-2-oxo-1,3′-bipiperidin-3-ylamino)benzoic acid] | > 10000
O=C(Nc1ccccc1)Nc1cccc(C2CCCN(c3ncnc4[nH]cnc34)C2)c1 (stereo not drawn) [compound 174] | 100 to 999
CC(C)c1ccccc1NC(=O)Nc1cccc(C2CCCN(c3ncnc4[nH]ccc34)C2)c1 (stereo not drawn) [compound 151] | < 100
O=C(NCC1CCCCN1)Nc1cccc(C2CCCN(c3ncnc4[nH]ccc34)C2)c1 (stereo not drawn) [compound 252] | > 10000
N#Cc1c(N)ncnc1N1CCCC(c2nc(NC(=O)Nc3c(F)cc(F)cc3N3CCCC3)cs2)C1 (stereo not drawn) [compound 113, 1-(2-(1-(6-amino-5-cyanopyrimidin-4-yl)piperidin-3-yl)thiazol-4-yl)-3-(2,4-difluoro-6-(pyrrolidin-1-yl)phenyl)urea] | < 100
CC(=O)N1CCN(c2ncnc3[nH]ccc23)CC1c1cccc(NC(=O)Nc2ccccc2)c1 (stereo not drawn) [compound 127, 1-(3-(1-acetyl-4-(7H-pyrrolo[2,3-d]pyrimidin-4-yl)piperazin-2-yl)phenyl)-3-phenylurea] | > 10000
CN/C(=N/C#N)Nc1cccc(C2CCCN(c3ncnc4[nH]ccc34)C2)c1 (stereo not drawn) [Cmpd 77, (E)-1-(3-(1-(7H-pyrrolo[2,3-d]pyrimidin-4-yl)piperidin-3-yl)phenyl)-2-cyano-3-methylguanidine] | > 10000
O=C(Nc1cccc(C2CCCN(c3ncnc4[nH]ccc34)C2)c1)c1ccc[nH]1 (stereo not drawn) [compound 14, N-(3-(1-(7H-pyrrolo[2,3-d]pyrimidin-4-yl)piperidin-3-yl)phenyl)-1H-pyrrole-2-carboxamide] | > 10000
O=C(Nc1cccc(C2CCCN(c3ncnc4[nH]ccc34)C2)c1)NC1CCCNC1 (stereo not drawn) [compound 232] | > 10000
COc1ccccc1C(=O)Nc1cccc(C2CCCN(c3ncnc4[nH]ccc34)C2)c1 (stereo not drawn) [Cmpd 6, N-(3-(1-(7H-pyrrolo[2,3-d]pyrimidin-4-yl)piperidin-3-yl)phenyl)-2-methoxybenzamide] | > 10000
CC(C)NC(=O)Nc1cccc(C2CCCN(c3ncnc4[nH]ccc34)C2)c1 (stereo not drawn) [compound 241] | > 10000
Nc1ncnc(N2CC[C@H](O)[C@@H](N3CCCC(Nc4cc(F)cc(Cl)c4)C3=O)C2)c1F (stereo partly drawn) [compound 324, trans-1′-(6-Amino-5-fluoropyrimidin-4-yl)-3-(3-chloro-5-fluorophenylamino)-4′-hydroxy-1,3′-bipiperidin-2-one] | < 100
